Results reported in patent US20230310424A1, “METHODS AND MATERIALS FOR INCREASING NICOTINAMIDE PHOSPHORIBOSYL TRANSFERASE ACTIVITY” (University of Pittsburgh - Of the Commonwealth System of …, priority 2020, published 2023).

System: NAD^+ levels in cells
Assay: Assay for Total NADH and NAD+ Measurements in Cells
Format: cell-based
Settings: cells incubated overnight with test compound; 100 percent = no change vs untreated control cells; cell type and concentration not given
Procedure: 2,000 cells/well and, at the same time, test compounds dissolved in media at the desired concentration were added to each well. The treated cells were incubated overnight in CO2 incubator. The cells were washed 6 times with PBS with 1 mM CaCl2 and 1 mM MgCl2. In the last wash, 10 μL of PBS with 1 mM CaCl2 and 1 mM MgCl2 per well were left in each well. Immediately thereafter, 10 μL 0.4% dodecyltrimethyl-ammonium bromide (DTAB) in phosphate buffer pH 8.0 as added, and the plates were shaked at 1000 rpm for 5 minutes. 60 μL reaction mix was added, and fluorescence at Ex/Em 530/585 was immediately monitored. A linear increase should be achieved with 8 cycles every 92 seconds, 10 number of flashes/well/cycle. The reaction mix was prepared per the following table, respecting the amount and order in which each component was added:
A percentage of 100 percent would indicate no increase or decrease in NAD^+ levels as compared to that measured for untreated control cells, while a percentage of 125 percent would indicate an increase in NAD^+ levels of 25 percent as compared to that measured for untreated control cells.

In order of falling “A: increase in NAD^+ levels in cells in response to the test compound, as the percent of NAD^+ levels compared to that in the absence of the test compound” value:
1. C#CCNC(=O)c1ccc2nc(-c3cccc(N(C)C)c3)c(-c3cccc(N(C)C)c3)nc2c1 [BC19499]  165%
2. CN(C)CCNC(=O)c1cnc2nc(-c3ccc(F)cc3)c(-c3ccc(F)cc3)nc2c1 [BC20201]  133%
3. COCCNC(=O)c1cnc2nc(-c3ccc(F)cc3)c(-c3ccc(F)cc3)nc2c1 [BC20200]  132%
4. C#CCNC(=O)c1cnc2nc(-c3ccc(F)cc3)c(-c3ccc(F)cc3)nc2c1 [BC20257]  130%
5. CS(=O)(=O)c1ccc(-c2nc3ccc(-c4ncco4)cc3nc2-c2ccc(F)cc2)s1 [BC19248]  125%
6. C#CCNC(=O)c1ccc2nc(-c3cccc(NC(=O)CN(C)C)c3)c(-c3cccc(NC(=O)CN(C)C)c3)nc2c1 [BC20287]  120%
7. Cc1cnc(-c2ccc3nc(-c4ccc(F)cc4)c(-c4cccs4)nc3c2)o1 [BC19249]  119%
8. NC(=O)c1ccc2nc(-c3ccc(F)cc3)c(C(F)(F)F)nc2c1 [BC19117]  116%
9. CN(C)c1cccc(-c2nc3ccc(C(=O)NCCO)cc3nc2-c2cccc(N(C)C)c2)c1 [BC19502]  115%
10. NC(=O)c1ccc2nc(-c3ccc(F)cc3)c(-c3cccs3)nc2c1 [BC19187]  113%
11. CNC(=O)c1ccc2nc(-c3cccs3)c(-c3ccc(F)cc3)nc2c1 [BC19119]  112%
12. Cn1cnnc1-c1ccc2nc(-c3ccc(F)cc3F)c(-c3ccccc3)nc2c1 [BC19444]  112%
13. CN1CCN(C(=O)c2ccc3nc(-c4cccs4)c(-c4ccc(F)cc4)nc3c2)CC1 [BC19109]  111%
14. Fc1ccc(-c2nc3cc(-c4nnn[nH]4)ccc3nc2C(F)(F)F)cc1 [BC19113]  110%
15. C#CCNC(=O)c1ccc2nc(-c3ccc(F)cc3)c(-c3cccs3)nc2c1 [BC19189]  109%
16. Cc1noc(-c2ccc3nc(-c4ccc(F)cc4)c(-c4ccc(F)cc4)nc3c2)n1 [BC19193]  109%
17. O=C(O)c1ccc2nc(-c3ccc(F)cc3)c(-c3ccc(F)cc3)nc2c1 [BC19118]  108%
18. Fc1ccc(-c2nc3ccc(-c4nnn[nH]4)cc3nc2-c2ccc(F)cc2)cc1 [BC19144]  107%
19. CN(C)c1cccc(-c2nc3ccc(C(=O)O)cc3nc2-c2cccc(N(C)C)c2)c1 [BC19500]  107%
20. Fc1ccc(-c2nc3ccc(-c4ncco4)cc3nc2-c2ccc(F)cc2)cc1 [BC19145]  106%
21. CN1CCN(C(=O)c2ccc3nc(C(F)(F)F)c(-c4ccncc4)nc3c2)CC1 [BC19149]  106%
22. CN1CCN(C(=O)c2ccc3nc(-c4ccc(C#N)cc4)c(-c4ccc(C#N)cc4)nc3c2)CC1 [BC19446]  106%
23. CN1CCN(C(=O)c2ccc3nc(C(F)(F)F)c(-c4cccnc4)nc3c2)CC1 [BC19105]  105%
24. CN1CCN(C(=O)c2ccc3nc(-c4ccc(F)cc4)c(C(F)(F)F)nc3c2)CC1 [BC19110]  105%
25. O=C(O)c1ccc2nc(-c3ccc(F)cc3)c(-c3cccs3)nc2c1 [BC19156]  105%
26. Fc1ccc(-c2nc3cc(-c4nnn[nH]4)ccc3nc2-c2cccs2)cc1 [BC19186]  105%
